Consider 13 compounds from patent publication US20250032625A1, “HETEROBIFUNCTIONAL MOLECULES AS TEAD INHIBITORS” (Merck Patent GmbH, priority 2021, published 2025).

Read-outs that look alike come from different tables or passages of the source.

One assay has as its target TEAD1 in SK-HEP1 cells (Homo sapiens (Human), UniProt P28347). Nature of the assay: TEAD degradation in SK-HEP1 cell line (immunofluorescence). Type of assay: cell-based. How it is done: (§1) Degradation of TEAD isoform TEAD1 by exemplary compounds which has been determined at different time points in two different cell lines, SK-HEP1 and NCI-H226: For the assay, SK-HEP1 (ATCC HTB-52) and NCI-H226 (ATCC CRL-5826) cells were treated in duplicates with the test compounds in a 10-point dose, 1:3 dilution steps, with the top concentration starting at 30 uM (final concentration in assay). After either 16 or 24 hour incubation at 37° C., 95% rH, and 5% CO2, the cells were fixed with 4% PFA and TEAD1 levels were probed using immunofluorescence. The primary antibody used was Anti-TEF1 (BD, 610293) and the secondary antibody used was Alexa Fluor® 488 Goat Anti-Mouse IgG (H+L) (Molecular Probes, A-11001). Finally, the cell nuclei were co-stained by Hoechst 33258 (Invitrogen, H-3569) and imaged using a high content imager. The amount of TEAD degradation was determined by quantifying the fluorescence intensity levels of Anti-TEF1 in each individual cell per well. DC50 was calculated using curve fitting software Genedata Screener. Cell media: The SK-HEP1 cells were cultured in the following media: MEM, +10% FCS, +1× GlutaMAX, +100 μM NEAA, +10 mM HEPES, +0.5% Pen/Strep. The NCI-H226 cells were cultured in the following media: RPMI 1640, +10% FBS, +1× GlutaMAX, +10 mM HEPES, +0.5% Pen/Strep.

The target of another assay is TEAD1 in NCI-H226 cells (Homo sapiens (Human), UniProt P28347). The assay is described as follows: TEAD degradation in NCI-H226 cell line (immunofluorescence). In kind it is cell-based. How it is done:
as §1

Where [1] appears, read: 24 hours, ranges, read-out: DC50 SK-HEP1.
[2] abbreviates: 24 hours, ranges, read-out: DC50 NCI-H226.
The mark [3] stands for this setting: 24 h incubation, read-out: DC50 SK-HEP1 24 h.
Setting [4] is: 24 h incubation, read-out: DC50 NCI-H226 24 h.

In general, DC50 refers to the concentration at which degradation of the target reaches its halfway point.

TEAD1 in NCI-H226 cells, sequence (P28347 whole entry): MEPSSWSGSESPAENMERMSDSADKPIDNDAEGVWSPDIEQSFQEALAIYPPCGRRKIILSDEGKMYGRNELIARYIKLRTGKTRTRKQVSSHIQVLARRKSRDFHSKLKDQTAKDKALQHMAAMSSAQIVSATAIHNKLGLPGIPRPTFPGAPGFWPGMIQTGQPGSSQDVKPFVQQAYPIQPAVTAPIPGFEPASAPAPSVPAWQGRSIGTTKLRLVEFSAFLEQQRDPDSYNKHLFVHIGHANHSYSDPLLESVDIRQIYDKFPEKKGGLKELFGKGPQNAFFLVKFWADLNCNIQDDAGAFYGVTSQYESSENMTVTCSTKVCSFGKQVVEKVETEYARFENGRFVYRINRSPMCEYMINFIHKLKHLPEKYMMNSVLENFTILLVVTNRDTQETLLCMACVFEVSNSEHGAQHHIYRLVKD
TEAD1 in SK-HEP1 cells, sequence (P28347 whole entry, canonical isoform): as the sequence (P28347 whole entry) above

Consider `Cn1cc2c3cc(C(=O)NCCOCCOCCOCCOCCOCCOCCNc4cccc5c4C(=O)N(C4CCC(=O)NC4=O)C5=O)ccc3n(-c3ccc(C(F)(F)F)cc3)c2n1` (centres unmarked) [Compound 87, N-(20-{[2-(2,6-dioxopiperidin-3-yl)-1,3-dioxo-2,3-dihydro-1H-isoindol-4-yl]amino}-3,6,9,12,15,18-hexaoxaicosan-1-yl)-2-methyl-8-[4-(trifluoromethyl)phenyl]-2H,8H-pyrazolo[3,4-b]indole-5-carboxamide], for which the DC50 at TEAD1 in SK-HEP1 cells (setting [1]) and at TEAD1 in NCI-H226 cells (setting [2]) was less than 100 nM each time.
In the case of `Cc1ncsc1-c1ccc(CNC(=O)[C@@H]2C[C@@H](O)CN2C(=O)[C@@H](NC(=O)CCCCCCCCCNC(=O)c2ccc3c(c2)c2cn(C)nc2n3-c2ccc(C(F)(F)F)cc2)C(C)(C)C)cc1` [Compound 20, (2S,4R)-1-[(2S)-3,3-dimethyl-2-[10-({2-methyl-8-[4-(trifluoromethyl)phenyl]-2H,8H-pyrazolo[3,4-b]indol-5-yl}formamido)decanamido]butanoyl]-4-hydroxy-N-{[4-(4-methyl-1,3-thiazol-5-yl)phenyl]methyl}pyrrolidine-2-carboxamide], the DC50 at TEAD1 in SK-HEP1 cells (setting [3]) was 190 nM; on TEAD1 in SK-HEP1 cells (setting [1]), 100 to 1000 nM; on TEAD1 in NCI-H226 cells (setting [4]) it was 300 nM; at TEAD1 in NCI-H226 cells (setting [2]), 100 to 1000 nM.
Turning to `CC(=O)O[C@@H]1C[C@@H](C(=O)N[C@@H](C)c2ccc(-c3scnc3C)cc2)N(C(=O)[C@@H](NC(=O)CCCCCC(=O)NCCOCCOCCNC(=O)c2ccc3c(c2)c2cn(C)nc2n3-c2ccc(C(F)(F)F)cc2)C(C)(C)C)C1` [Compound 25, (3R,5S)-1-[(2S)-3,3-dimethyl-2-{6-[(2-{2-[2-({2-methyl-8-[4-(trifluoromethyl)phenyl]-2H,8H-pyrazolo[3,4-b]indol-5-yl}formamido)ethoxy]ethoxy}ethyl)carbamoyl]hexanamido}butanoyl]-5-{[(1S)-1-[4-(4-methyl-1,3-thiazol-5-yl)phenyl]ethyl]carbamoyl}pyrrolidin-3-yl acetate], the DC50 was 1000 nM at TEAD1 in SK-HEP1 cells (16 h incubation, read-out: DC50 SK-HEP1 16 h); 1000 nM at TEAD1 in SK-HEP1 cells (setting [3]); 100 to 1000 nM at TEAD1 in SK-HEP1 cells (setting [1]); 1000 nM at TEAD1 in NCI-H226 cells (16 h incubation, read-out: DC50 NCI-H226 16 h); 1000 nM at TEAD1 in NCI-H226 cells (setting [4]); 1000 to 3000 nM on TEAD1 in NCI-H226 cells (setting [2]).
For `Cn1cc2c3cc(C(=O)NCCOCCOCCOCCOCCNc4cccc5c4C(=O)N(C4CCC(=O)NC4=O)C5=O)ccc3n(CC3CCC(C(F)(F)F)CC3)c2n1` (centres unmarked) [Compound 99, N-(14-{[2-(2,6-dioxopiperidin-3-yl)-1,3-dioxo-2,3-dihydro-1H-isoindol-4-yl]amino}-3,6,9,12-tetraoxatetradecan-1-yl)-2-methyl-8-{[4-(trifluoromethyl)cyclohexyl]methyl}-2H,8H-pyrazolo[3,4-b]indole-5-carboxamide], the values for the 50% degradation concentration (DC50) at TEAD1 in SK-HEP1 cells (setting [1]) and at TEAD1 in NCI-H226 cells (setting [2]) were less than 100 nM and 100 to 1000 nM, respectively.
With `Cn1cc2c3cc(C(=O)NCCOCCOCCNC(=O)CCCCCCNc4cccc5c4CN(C4CCC(=O)NC4=O)C5=O)ccc3n(-c3ccc(C(F)(F)F)cc3)c2n1` (centres unmarked) [Compound 15, 7-{[2-(2,6-dioxopiperidin-3-yl)-1-oxo-2,3-dihydro-1H-isoindol-4-yl]amino}-N-(2-{2-[2-({2-methyl-8-[4-(trifluoromethyl)phenyl]-2H,8H-pyrazolo[3,4-b]indol-5-yl}formamido)ethoxy]ethoxy}ethyl) heptanamide], the DC50 on TEAD1 in NCI-H226 cells (setting [2]) was in the range of 1000 to 3000 nM.
As to `Cc1ncsc1-c1ccc(CNC(=O)[C@@H]2C[C@@H](O)CN2C(=O)[C@@H](NC(=O)CCCCCCOCCNC(=O)c2ccc3c(c2)c2cn(C)nc2n3-c2ccc(C(F)(F)F)cc2)C(C)(C)C)cc1` [Compound 77, (2S,4R)-1-[(2S)-3,3-dimethyl-2-{7-[2-({2-methyl-8-[4-(trifluoromethyl)-phenyl]-2H,8H-pyrazolo[3,4-b]indol-5-yl}formamido)ethoxy]heptanamido}-butanoyl]-4-hydroxy-N-{[4-(4-methyl-1,3-thiazol-5-yl)phenyl]methyl}-pyrrolidine-2-carboxamide], the DC50 on TEAD1 in SK-HEP1 cells (setting [1]) lay in the range of 100 to 1000 nM.
Regarding `Cn1cc2c3cc(C(=O)NCCOCCOCCOCCOCCNc4cccc5c4C(=O)N(C4CCC(=O)NC4=O)C5=O)ccc3n(-c3ccc(C(F)(F)F)cc3)c2n1` (centres unmarked) [Compound 28, N-(14-{[2-(2,6-dioxopiperidin-3-yl)-1,3-dioxo-2,3-dihydro-1H-isoindol-4-yl]amino}-3,6,9,12-tetraoxatetradecan-1-yl)-2-methyl-8-[4-(trifluoromethyl)phenyl]-2H,8H-pyrazolo[3,4-b]indole-5-carboxamide], the DC50 is 70 nM on TEAD1 in SK-HEP1 cells (setting [3]), less than 100 nM at TEAD1 in SK-HEP1 cells (setting [1]), 90 nM on TEAD1 in NCI-H226 cells (setting [4]) and less than 100 nM on TEAD1 in NCI-H226 cells (setting [2]).
In the case of `Cc1ncsc1-c1ccc(CNC(=O)[C@@H]2C[C@@H](O)CN2C(=O)[C@@H](NC(=O)CCCCCc2cn(CCCCCCNC(=O)c3ccc4c(c3)c3cn(C)nc3n4-c3ccc(C(F)(F)F)cc3)nn2)C(C)(C)C)cc1` [Compound 35, (2S,4R)-1-[(2S)-3,3-dimethyl-2-(6-{1-[6-({2-methyl-8-[4-(trifluoromethyl)phenyl]-2H,8H-pyrazolo[3,4-b]indol-5-yl}formamido)hexyl]-1H-1,2,3-triazol-4-yl}hexanamido)butanoyl]-4-hydroxy-N-{[4-(4-methyl-1,3-thiazol-5-yl)phenyl]methyl}pyrrolidine-2-carboxamide], the DC50 on TEAD1 in SK-HEP1 cells (setting [1]) and at TEAD1 in NCI-H226 cells (setting [2]) was less than 100 nM in each case.
Turning to `Cc1ncsc1-c1ccc(CNC(=O)[C@@H]2C[C@@H](O)CN2C(=O)[C@@H](NC(=O)CCCCCc2cn(CCCCCCCNC(=O)c3ccc4c(c3)c3cn(C)nc3n4-c3ccc(C(F)(F)F)cc3)nn2)C(C)(C)C)cc1` [Compound 34, (2S,4R)-1-[(2S)-3,3-dimethyl-2-(6-{1-[7-({2-methyl-8-[4-(trifluoromethyl)phenyl]-2H,8H-pyrazolo[3,4-b]indol-5-yl}formamido)heptyl]-1H-1,2,3-triazol-4-yl}hexanamido)butanoyl]-4-hydroxy-N-{[4-(4-methyl-1,3-thiazol-5-yl)phenyl]methyl}pyrrolidine-2-carboxamide], the DC50 on TEAD1 in SK-HEP1 cells (setting [1]) and at TEAD1 in NCI-H226 cells (setting [2]) was 100 to 1000 nM each time.
As to `Cn1cc2c3cc(C(=O)NCCOCCOCCOCCOCCNc4ccc5c(c4)C(=O)N(C4CCC(=O)NC4=O)C5=O)ccc3n(-c3ccc(C(F)(F)F)cc3)c2n1` (centres unmarked) [Compound 42, N-(14-{[2-(2,6-dioxopiperidin-3-yl)-1,3-dioxo-2,3-dihydro-1H-isoindol-5-yl]amino}-3,6,9,12-tetraoxatetradecan-1-yl)-2-methyl-8-[4-(trifluoro-methyl)phenyl]-2H,8H-pyrazolo[3,4-b]indole-5-carboxamide], the 50% degradation concentration (DC50) on TEAD1 in SK-HEP1 cells (setting [1]) is less than 100 nM; at TEAD1 in NCI-H226 cells (setting [2]), 100 to 1000 nM.
For `Cc1ncsc1-c1ccc(CNC(=O)[C@@H]2C[C@@H](O)CN2C(=O)[C@@H](NC(=O)CCOCCC(=O)NCCOCCOCCNC(=O)c2ccc3c(c2)c2cn(C)nc2n3-c2ccc(C(F)(F)F)cc2)C(C)(C)C)cc1` [Compound 61, (2S,4R)-1-[(2S)-3,3-dimethyl-2-(3-{2-[(2-{2-[2-({2-methyl-8-[4-(trifluoro-methyl)phenyl]-2H,8H-pyrazolo[3,4-b]indol-5-yl}formamido)-ethoxy]ethoxy}ethyl)carbamoyl]ethoxy}propanamido)butanoyl]-4-hydroxy-N-{[4-(4-methyl-1,3-thiazol-5-yl)phenyl]methyl}pyrrolidine-2-carboxamide] the same measures were 3000 to 9000 nM and 3000 to 9000 nM.
For `CCNC(=O)[C@H](Cc1ccccc1)NC(=O)[C@@H]1CCCN1C(=O)[C@@H](NC(=O)[C@H](C)NCCCCCCNC(=O)c1ccc2c(c1)c1cn(C)nc1n2-c1ccc(C(F)(F)F)cc1)C1CCCCC1` [Compound 73, (2S)-2-{[(2S)-1-[(2S)-2-cyclohexyl-2-[(2S)-2-{[6-({2-methyl-8-[4-(trifluoro-methyl)phenyl]-2H,8H-pyrazolo[3,4-b]indol-5-yl}formamido)hexyl]amino}-propanamido]acetyl]pyrrolidin-2-yl]formamido}-N-ethyl-3-phenylpropan-amide] the same measures were 3000 to 9000 nM and 9000 to 30000 nM.
Take `Cn1cc2c3cc(C(=O)NCCOCCOCCOCCOCCOCC(=O)Nc4cccc5c4C(=O)N(C4CCC(=O)NC4=O)C5=O)ccc3n(-c3ccc(C(F)(F)F)cc3)c2n1` (centres unmarked) [Compound 10, N-[2-(2,6-dioxopiperidin-3-yl)-1,3-dioxo-2,3-dihydro-1H-isoindol-4-yl]-17-({2-methyl-8-[4-(trifluoromethyl)phenyl]-2H,8H-pyrazolo[3,4-b]indol-5-yl}formamido)-3,6,9,12,15-pentaoxaheptadecanamide]: the half-maximal degradation concentration (DC50) on TEAD1 in NCI-H226 cells (setting [4]) was 20000 nM; on TEAD1 in NCI-H226 cells (setting [2]) it was 1000 to 3000 nM.
